This is an account of results in patent US8785445B2 (Array BioPharma Inc., priority 2008, dated 2014).

Structures are written as SMILES.

The target of one assay is T1, human DP2 (Homo sapiens, UniProt Q9Y5Y4).
T1 construct: expressed in transfected cells; membranes prepared
T1 sequence (Q9Y5Y4 1-395): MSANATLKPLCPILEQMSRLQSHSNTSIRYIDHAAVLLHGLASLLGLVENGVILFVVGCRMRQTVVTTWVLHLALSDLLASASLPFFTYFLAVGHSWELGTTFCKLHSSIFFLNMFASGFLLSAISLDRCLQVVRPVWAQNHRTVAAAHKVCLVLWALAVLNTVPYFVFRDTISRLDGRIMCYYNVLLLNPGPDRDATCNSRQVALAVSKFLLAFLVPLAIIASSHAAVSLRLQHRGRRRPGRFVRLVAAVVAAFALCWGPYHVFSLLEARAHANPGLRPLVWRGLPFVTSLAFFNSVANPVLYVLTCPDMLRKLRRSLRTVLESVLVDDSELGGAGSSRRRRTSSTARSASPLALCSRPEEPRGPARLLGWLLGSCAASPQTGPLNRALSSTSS
The assay is described as follows: DP-2 binding inhibition assay (3H-PGD2, membranes of DP2-expressing K562 cells). Particulars: 0.1% BSA, read-out: EC50 (nM) 0.1% BSA. Summed up: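 Displacement of 3H-PGD2 was measured by filtration and scintillation counting after 60 min at room temperature, using membranes of DP2-transfected K562 cells in 0.1% BSA, 1% HSA or 4% HSA.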
What is called EC50 is the concentration giving half of the maximal effect. With `N#Cc1cc2c(cc1Oc1ccc(C(=O)Nc3nc4c(F)cc(F)cc4s3)cc1)OCCC2C(=O)O` (stereo not drawn) [Example 202, 6-cyano-7-(4-(4,6-difluorobenzo[d]thiazol-2-ylcarbamoyl)phenoxy) chroman-4-carboxylic acid], the EC50 worked out at 24.5 nM.

Take `O=C(Nc1ccc(-c2ccc(C(F)(F)F)cc2)nn1)c1ccc(Oc2cc3c(cc2Cl)C(C(=O)O)CCO3)cc1` (single isomer, unassigned; enantiomer 2) [Example 185, Enantiomer 2 of sodium 6-chloro-7-(4-(6-(4-(trifluoromethyl)phenyl)pyridazin-3-ylcarbamoyl)phenoxy)chroman-4-carboxylate]: the EC50 was determined as 1.2 nM.

Take `Cc1cc(C(=O)Nc2ccc(C(F)(F)F)nc2)ccc1Oc1cc2c(cc1C#N)C(C(=O)O)CCO2` (stereo not drawn) [Example 14, 6-Cyano-7-(2-methyl-4-(6-(trifluoromethyl)pyridin-3-ylcarbamoyl)phenoxy)chroman-4-carboxylic acid]: the EC50 was 55.8 nM.

In the case of `COc1ccc2nc(NC(=O)c3ccc(Oc4cc5c(cc4C#N)C(C(=O)O)CCO5)cc3)sc2c1` (stereo not drawn) [Example 197, 6-cyano-7-(4-(6-methoxybenzo[d]thiazol-2-ylcarbamoyl)phenoxy) chroman-4-carboxylic acid], the EC50 amounted to 9.3 nM.

Regarding `O=C(Nc1ccc(-c2ccc(C(F)(F)F)cc2)nn1)c1ccc(Oc2cc3c(cc2Cl)C(C(=O)O)CCO3)cc1` (stereo not drawn) [Example 98, Sodium 6-chloro-7-(4-(6-(4-(trifluoromethyl)phenyl)pyridazin-3-ylcarbamoyl)phenoxy)chroman-4-carboxylate], the EC50 turned out to be 17.9 nM.

On to `N#Cc1cc2c(cc1Oc1ccc(C(=O)Nc3ccc(C(F)(F)F)cn3)cc1)OCCC2C(=O)O` (stereo not drawn) [Example 1, 7-(4-((5-(Trifluoromethyl)pyridin-2-yl)carbamoyl)phenoxy)-6-cyanochroman-4-carboxylic acid], for which the EC50 amounted to 19.3 nM.

Still in this assay, the particulars now being: 1% HSA, read-out: EC50 (nM) 1% HSA.
Turning to `COc1ccc2nc(NC(=O)c3ccc(Oc4cc5c(cc4C#N)C(C(=O)O)CCO5)cc3)sc2c1` (stereo not drawn) [Example 197, 6-cyano-7-(4-(6-methoxybenzo[d]thiazol-2-ylcarbamoyl)phenoxy) chroman-4-carboxylic acid], the EC50 is 146 nM.

The assay is the same for the next values; noted with them: 4% HSA, read-out: EC50 (nM) 4% HSA.
For the compound `Cc1ccc(-c2cccc(NC(=O)c3ccc(Oc4cc5c(cc4Cl)C(C(=O)O)CCO5)cc3)n2)cc1` (stereo not drawn) [Example 57, 6-Chloro-7-(4-(6-p-tolylpyridin-2-ylcarbamoyl)phenoxy)chroman-4-carboxylic acid], the EC50 came to 39.4 nM.

On to `O=C(Nc1ccc(-c2ccc(C(F)(F)F)cc2)nc1)c1ccc(Oc2cc3c(cc2Cl)C(C(=O)O)CCO3)cc1` (stereo not drawn) [Example 76, Sodium 6-chloro-7-(4-(6-(4-(trifluoromethyl)phenyl)pyridin-3-ylcarbamoyl)phenoxy)chroman-4-carboxylate], for which the EC50 came to 101 nM.

Take `O=C(NCCn1ccc(-c2ccc(Cl)cc2)n1)c1ccc(Oc2cc3c(cc2Cl)C(C(=O)O)CCO3)cc1` (stereo not drawn) [Example 219, 6-chloro-7-(4-(2-(3-(4-chlorophenyl)-1H-pyrazol-1-yl)ethylcarbamoyl)phenoxy) chroman-4-carboxylic acid]: the concentration giving a half-maximal response (EC50) stood at 1370 nM.

`CC(C)c1nsc(NC(=O)c2ccc(Oc3cc4c(cc3Cl)C(C(=O)O)CCO4)cc2)n1` (stereo not drawn) [Example 160, 6-chloro-7-(4-(3-isopropyl-1,2,4-thiadiazol-5-ylcarbamoyl)phenoxy)chroman-4-carboxylic acid]: the EC50 stood at 849 nM.

`O=C(Nc1ccc(-c2ccc(C(F)(F)F)cc2)nn1)c1ccc(Oc2cc3c(cc2Cl)C(C(=O)O)CCO3)cc1` (single isomer, unassigned; enantiomer 2) [Example 185, Enantiomer 2 of sodium 6-chloro-7-(4-(6-(4-(trifluoromethyl)phenyl)pyridazin-3-ylcarbamoyl)phenoxy)chroman-4-carboxylate]: the EC50 was determined as 60 nM.

As to `O=C(Nc1nc2ccc(Cl)cc2s1)c1ccc(Oc2cc3c(cc2Cl)C(C(=O)O)CCO3)cc1` (stereo not drawn) [Example 207, 6-chloro-7-(4-(6-chlorobenzo[d]thiazol-2-ylcarbamoyl)phenoxy) chroman-4-carboxylic acid], the EC50 is 105 nM.

As for `O=C(Nc1cccc(-c2ccc(F)c(F)c2)n1)c1ccc(Oc2cc3c(cc2Cl)C(C(=O)O)CCO3)cc1` (stereo not drawn) [Example 81, 6-Chloro-7-(4-(6-(3,4-difluorophenyl)pyridin-2-ylcarbamoyl)phenoxy)chroman-4-carboxylic acid], the EC50 is 97.9 nM.

As for `O=C(Nc1cccc(-c2ccccc2)n1)c1ccc(Oc2cc3c(cc2Cl)C(C(=O)O)CCO3)cc1` (stereo not drawn) [Example 27, 6-chloro-7-(4-(6-phenylpyridin-2-ylcarbamoyl)phenoxy)chroman-4-carboxylic acid], the EC50 turned out to be 173 nM.

With `CC(C)(C)c1csc(CCNC(=O)c2ccc(Oc3cc4c(cc3Cl)C(C(=O)O)CCO4)cc2)n1` (stereo not drawn) [Example 222, 7-(4-(2-(4-tert-butylthiazol-2-yl)ethylcarbamoyl)phenoxy)-6-chlorochroman-4-carboxylic acid], the concentration for a half-maximal effect (EC50) came to 1070 nM.

For `O=C(Nc1ccn(-c2ccc(F)c(Cl)c2)n1)c1ccc(Oc2cc3c(cc2Cl)C(C(=O)O)CCO3)cc1` (stereo not drawn) [Example 167, 6-chloro-7-(4-(1-(3-chloro-4-fluorophenyl)-1H-pyrazol-3-ylcarbamoyl)phenoxy)chroman-4-carboxylic acid], the EC50 turned out to be 46.8 nM.

For `CC(C)(C)c1ccc(-c2cccc(NC(=O)c3ccc(Oc4cc5c(cc4Cl)C(C(=O)O)CCO5)cc3)n2)cc1` (stereo not drawn) [Example 85, 7-(4-(6-(4-tert-Butylphenyl)pyridin-2-ylcarbamoyl)phenoxy)-6-chlorochroman-4-carboxylic acid], the EC50 came out at 22.5 nM.

Take `COc1cc(Cl)ccc1-c1cccc(NC(=O)c2ccc(Oc3cc4c(cc3Cl)C(C(=O)O)CCO4)cc2)n1` (stereo not drawn) [Example 104, Sodium 6-chloro-7-(4-(6-(4-chloro-2-methoxyphenyl)pyridin-2-ylcarbamoyl)phenoxy)chroman-4-carboxylate]: the concentration for a half-maximal effect (EC50) turned out to be 116 nM.

With `O=C(Nc1cnc(-c2cccc(Cl)c2)nc1)c1ccc(Oc2cc3c(cc2Cl)C(C(=O)O)CCO3)cc1` (stereo not drawn) [Example 135, 6-Chloro-7-(4-(2-(3-chlorophenyl)pyrimidin-5-ylcarbamoyl)phenoxy)chroman-4-carboxylic acid], the half-maximal effective concentration (EC50) came to 313 nM.

Turning to `Cc1nc(NC(=O)c2ccc(Oc3cc4c(cc3Cl)C(C(=O)O)CCO4)cc2)sc1C(C)(C)C` (stereo not drawn) [Example 151, 7-(4-(5-tert-butyl-4-methylthiazol-2-ylcarbamoyl)phenoxy)-6-chlorochroman-4-carboxylic acid], the EC50 came to 473 nM.

Take `COc1ccc(-c2cccc(CCNC(=O)c3ccc(Oc4cc5c(cc4Cl)C(C(=O)O)CCO5)cc3)n2)cc1` (stereo not drawn) [Example 214, 6-chloro-7-(4-(2-(6-(4-methoxyphenyl)pyridin-2-yl)ethylcarbamoyl)phenoxy)chroman-4-carboxylic acid]: the half-maximal effective concentration (EC50) turned out to be 1350 nM.

Take `O=C(Nc1nccc(-c2cccc(Cl)c2)n1)c1ccc(Oc2cc3c(cc2Cl)C(C(=O)O)CCO3)cc1` (stereo not drawn) [Example 133, 6-Chloro-7-(4-(4-(3-chlorophenyl)pyrimidin-2-ylcarbamoyl)phenoxy)chroman-4-carboxylic acid]: the EC50 was determined as 261 nM.

With `O=C(Nc1ccc(-c2ccc(Cl)c(F)c2)nn1)c1ccc(Oc2cc3c(cc2Cl)C(C(=O)O)CCO3)cc1` (stereo not drawn) [Example 67, Sodium 6-chloro-7-(4-(6-(4-chloro-3-fluorophenyl)pyridazin-3-ylcarbamoyl)phenoxy)chroman-4-carboxylate], the concentration giving a half-maximal response (EC50) was found to be 203 nM.

As for `O=C(Nc1cnn(-c2cccc(Cl)c2)c1)c1ccc(Oc2c(Cl)cc3c(c2Cl)OCCC3C(=O)O)cc1` (stereo not drawn) [Example 165, Sodium 6,8-dichloro-7-(4-(1-(3-chlorophenyl)-1H-pyrazol-4-ylcarbamoyl)phenoxy)chroman-4-carboxylate], the concentration giving a half-maximal response (EC50) is 187 nM.

Consider `COc1ccc(-c2ccc(NC(=O)c3ccc(Oc4cc5c(cc4Cl)C(C(=O)O)CCO5)cc3)nn2)cc1` (stereo not drawn) [Example 63, Sodium 6-chloro-7-(4-(6-(4-methoxyphenyl)pyridazin-3-ylcarbamoyl)phenoxy)chroman-4-carboxylate], for which the half-maximal effective concentration (EC50) is 1460 nM.

As to `CC(C)(C)c1cc(NC(=O)c2ccc(Oc3cc4c(cc3Cl)C(C(=O)O)CCO4)cc2)no1` (stereo not drawn) [Example 158, 7-(4-(5-tert-butylisoxazol-3-ylcarbamoyl)phenoxy)-6-chlorochroman-4-carboxylic acid], the EC50 was found to be 155 nM.

Take `O=C(Nc1ccc(-c2cccc(Cl)c2)nn1)c1ccc(Oc2cc3c(cc2Cl)C(C(=O)O)CCO3)cc1` (stereo not drawn) [Example 97, 6-Chloro-7-(4-(6-(3-chlorophenyl)pyridazin-3-ylcarbamoyl)phenoxy)chroman-4-carboxylic acid]: the 50% effective concentration (EC50) amounted to 203 nM.

For the compound `O=C(Nc1cnc(-c2ccc(Cl)cc2)cn1)c1ccc(Oc2cc3c(cc2Cl)C(C(=O)O)CCO3)cc1` (stereo not drawn) [Example 95, 6-Chloro-7-(4-(5-(4-chlorophenyl)pyrazin-2-ylcarbamoyl)phenoxy)chroman-4-carboxylic acid], the EC50 was found to be 365 nM.

As to `O=C(Nc1ccc(-c2ccc(C(F)(F)F)cc2)nn1)c1ccc(Oc2cc3c(cc2Cl)C(C(=O)O)CCO3)cc1` (stereo not drawn) [Example 98, Sodium 6-chloro-7-(4-(6-(4-(trifluoromethyl)phenyl)pyridazin-3-ylcarbamoyl)phenoxy)chroman-4-carboxylate], the EC50 amounted to 112 nM.

On to `O=C(Nc1cncc(-c2ccccc2)n1)c1ccc(Oc2cc3c(cc2Cl)C(C(=O)O)CCO3)cc1` (stereo not drawn) [Example 32, 6-Chloro-7-(4-(6-phenylpyrazin-2-ylcarbamoyl)phenoxy)chroman-4-carboxylic acid], for which the EC50 amounted to 401 nM.

For `O=C(Nc1ccc(-c2ccc(F)cc2)nn1)c1ccc(Oc2cc3c(cc2Cl)C(C(=O)O)CCO3)cc1` (stereo not drawn) [Example 66, Sodium 6-chloro-7-(4-(6-(4-fluorophenyl)pyridazin-3-ylcarbamoyl)phenoxy)chroman-4-carboxylate], the concentration giving a half-maximal response (EC50) was 306 nM.

Consider `O=C(Nc1ccc(-c2ccc(Cl)cc2F)nn1)c1ccc(Oc2cc3c(cc2Cl)C(C(=O)O)CCO3)cc1` (stereo not drawn) [Example 72, Sodium 6-chloro-7-(4-(6-(4-chloro-2-fluorophenyl)pyridazin-3-ylcarbamoyl)phenoxy)chroman-4-carboxylate], for which the EC50 amounted to 1110 nM.
